Results taken from patent US11421237B2, “Pair of amino acid sequences for monitoring formation of TDP-43 oligomer in living cells via bimolecular fluorescence complementation” (KOREA INSTITUTE OF SCIENCE AND TECHNOLOGY, priority 2019, dated 2022).
Several values for one entry are separate records, joined by “and”; a condition that tells them apart may be missing. Equal values may be shown once. Entries after “also recorded” stand apart in the source; their conditions may differ. Peptide text beside a SMILES is read from it. * marks the point of attachment. Cbz = O=C(OCc1ccccc1)*

Key:
Type in all cases: cell-based, human
[1] = system: TDP-43-BiFC cells; test: BiFC fluorescence analysis of TDP-43 oligomer formation in TDP-43-BiFC cells (384-well, Operetta); settings: 48 hours at 37° C.; for increase of BiFC fluorescence in the cells compared to untreated cells: forskolin 30 μM, scriptaid 3 μM, thapsigargin 1 μM, ionomycin 1 μM, Cu^2+ 1 μM, Zn^2+ 30 μM; for change in BiFC fluorescence of TDP-43 (in words): MG132 5 μM, α-synuclein 5 μg/ml, tauK18^P301L 5 μg/ml
Description: In order to develop a TDP-43-BiFC cell line, the TDP-43-VN173 and TDP-43-VC155 constructs shown in FIG. 2 were co-transfected into HEK293 BiFC cells. For establishment of a stable cell line, the transfected cells were selected by culture with growth medium containing 100 μg/mL geneticin (G418; Sigma). In addition, the selected cells were sorted using FACSAria (BD Bioscience) into cells showing fluorescence. The sorted TDP-43-BiFC cells were kept in DMEM medium containing 10% FBS, 100 units/mL penicillin, 100 μg/mL streptomycin and 100 μg/mL G418 in a humidified atmosphere at 37° C. under 5% CO2.
The TDP-43-BiFC cells prepared in Example 1 above were treated with a compound that induces PTMs of protein, a compound that ER stress in cells, amyloid protein, metal ions, or the like, and changes in BiFC fluorescence in the cells were examined. Specifically, for fluorescence analysis, the TDP-43-BiFC cells were grown in a 384-well plate and treated with each of forskolin (30 μM), scriptaid (3 μM), thapsigargin (1 μM), ionomycin (1 μM), MG132 (5 μM), α-synuclein (5 μg/ml), tauK18^P301L (5 μg/ml), Cu^2+ (1 μM) and Zn^2+ (30 μM), followed by culture at 37° C. for 48 hours. Fluorescence images were obtained using Operetta® (PerkinElmer), and the fluorescence intensity in the nucleus and the cytoplasmic fluorescence intensity were analyzed using Harmony3.1 software (PerkinElmer).

[2] = system: TDP-43-BiFC cells; test: Isolation of TDP-43 oligomer with GFP-trap beads and immunoblot with anti-TDP-43 antibody; settings: 24 hours at 37° C., forskolin 30 μM, scriptaid 1 μM, thapsigargin 0.5 μM, ionomycin 1 μM, SDS-PAGE, immunoblot
Description: Lysates of the TDP-43-BiFC cells treated with each of the four drugs in Example 3 and a lysate of untreated cells were prepared and TDP-43 oligomers were isolated therefrom. Specifically, TDP-43-BiFC cells were grown in a 6-well plate, treated with each of forskolin (30 μM), scriptaid (1 μM), thapsigargin (0.5 μM) and ionomycin (1 μM), and cultured at 37° C. for 24 hours, and then lysates of the cells were prepared. GFP-trap beads shown in FIG. 5a were added to the lysates which were then incubated at 4° C. for 16 hours, and the oligomerized TDP-43 protein was isolated. The isolated protein was separated by SDS-PAGE, and immunoblot analysis was performed using anti-TDP-43 antibody.

[3] = system: TDP-43-BiFC cells; test: Intracellular distribution of BiFC fluorescence, high-magnification imaging; settings: treated as in Example 2 (scriptaid 3 μM, 48 hours); 1000× magnification
Excerpt: Next, the pattern of intracellular distribution by an increase in TDP-43 oligomer formation was examined. Specifically, TDP-43 formation was induced in the same manner as Example 2 above, and then the whole plate was automatically imaged using Operetta®, and high-resolution images were obtained using a Nikon Eclipse inverted microscope (Ti, Nikon) at 1000× magnification.

Compound	increase of BiFC fluorescence in the cells compared to untreated cells [1]	change in BiFC fluorescence of TDP-43 (in words) [1]	other results
[Cu+2] [Cu^2+]	about 2 fold		
CC(C)C[C@@H](C=O)NC(=O)[C@H](CC(C)C)NC(=O)[C@H](CC(C)C)NC(=O)OCc1ccccc1 [MG132] (Cbz-Leu-Leu-Leu-aldehyde)		no change	
[Zn+2] [Zn^2+]	about 2 fold		
C[C@H](CCC(=O)O)C[C@H](C)C[C@H](C)C(=O)/C=C(\O)[C@H](C)C[C@H](C)C/C=C/[C@@H](C)[C@@H](O)[C@@H](C)[C@@H](O)C[C@@H]1CC[C@@](C)([C@H]2CC[C@@](C)([C@@H](C)O)O2)O1 [ionomycin]	7 fold		
O=C(CCCCCN1C(=O)c2cccc3cccc(c23)C1=O)NO [scriptaid]	36 fold and 48 fold		amount of detected oligomerized TDP-43 protein compared to untreated cells [2]: largest amount; distribution of BiFC fluorescence in nucleus and cytoplasm [3]: greatly increased the fluorescence not only in the nucleus but also in the cytoplasm; also recorded: significantly increased not only in the nucleus but also in the cytoplasm
C/C=C(/C)C(=O)O[C@H]1C(C)=C2[C@H]([C@@H]1OC(=O)CCCCCCC)[C@@](C)(OC(C)=O)C[C@H](OC(=O)CCC)[C@@]1(O)[C@H]2OC(=O)[C@@]1(C)O [thapsigargin]	31 fold		
tauK18^P301L		did not increase	
α-synuclein		did not increase	
